Experimental data from patent US20240374730A1, “PHOTOACTIVATABLE PRODRUG NANOPARTICLES FOR COMBINED ANTI-ANGIOGENESIS AND PHOTODYNAMIC THERAPY” (The University of Hong Kong, priority 2021, published 2024).
pIC50: −log10 of the molar value.

Assays:
[1] = tested on: VEGF-stimulated human umbilical vein endothelial cells (HUVECs); experiment: MTT cell viability of VEGF-stimulated HUVECs (dasatinib vs Di-DAS); type: cell-based; settings: HUVEC, 20 ng/mL VEGF165, 48 h, read-out: 50% inhibition concentration (IC50)
Procedure: . Cells were incubated with 20 ng/mL VEGF165 and co-treated with dasatinib or Di-DAS at various concentrations for 48 h. FIG. 4B VEGF-stimulated HUVEC tube formation assay of Di-DAS-VER. […] FIG. 4C Quantitative HUVEC cell viability of Di-DAS-VER by MTT assay. […] MTT assay was performed at 24 h after treatment. […] . DAS: dasatinib; VER: verteporfin.
We tested the in vitro anti-angiogenic activity of DAS and Di-DAS in VEGF-stimulated human umbilical vein endothelial cells (HUVECs). […] . To assess therapeutic efficacy of combined anti-VEGF and PDT treatment, thiazolyl blue tetrazolium bromide (MTT) assay was conducted for measuring VEGF-stimulated HUVEC cell viability.

VEGF-stimulated HUVECs = experiment: HUVEC scratch-wound healing assay; settings: DAS group, irradiation not stated, 20 h
[2] = tested on: VEGF-induced HUVEC tube formation; experiment: VEGF-induced HUVEC tube formation assay; type: cell-based, human; settings: DAS equivalent dose 0.05 μM, 20 ng/mL VEGF165, 4 h

Cc1nc(Nc2ncc(C(=O)Nc3c(C)cccc3Cl)s2)cc(N2CCN(CCO)CC2)n1 [DAS, dasatinib]
pIC50 [1]: 6.04 | scratch wound recovery (VEGF-stimulated HUVECs): 11.35%

verteporfin
inhibition of VEGF-induced HUVEC differentiation and formation of vessel-like tubes [2]: could not inhibit
